# Reference: publication PMC6568410, “A scorpion venom peptide derivative BmKn‒22 with potent antibiofilm activity against Pseudomonas aeruginosa” (PLoS ONE, 2019)
# Where no end group is shown, it is not given here.
# What was measured:
# rhlR mRNA = test: qRT-PCR of quorum sensing-related gene rhlR; assay type: cell-based, Pseudomonas aeruginosa; settings: 800 µM, 10 h
# Experimental: (§1) The effects of BmKn‒22 peptide on the expression of quorum sensing‒related genes in P. aeruginosa PAO1 were assessed by qPCR. Briefly, bacterial suspension at approximately 10^7 CFU/mL was cultured in the presence or absence of the test peptide (800 μM, final concentration) at 37 ^OC for 10 h using a shaking incubator. After centrifugation at 4,500 rpm for 10 minutes, the bacterial cells were harvested and subsequently subjected to total RNA extraction using TRIzol® reagent (Invitrogen, USA) as per the manufacturer’s instruction. The concentration of the extracted RNA was measured using Nanodrop spectrophotometer (NanoDrop Technologies, USA). Thereafter, 1 μg of extracted RNA was reverse-transcribed into cDNA using Random Hexamer primer and RevertAid First Strand cDNA synthesis kit (Fermantas), which was amplified by real-time PCR. The primers for the genes lasI, lasR, RhlI, RhlR and 16S rRNA were used (Table 2). All primers were synthesized by the Integrated DNA Technology (IDT), Canada. The reaction mixture consisted of 1× AccuPower® 2X GreenStar™ qPCR Master Mix, 0.4 μmol/L each forward primer and reverse primer and 1 μL of cDNA in a final volume of 10 μL. Thermal cycles used was 95 ^OC for 2.5 min, followed by 40 cycles of 95 ^OC for 30 sec, 60 ^OC for 30 sec and 72 ^OC for 30 sec. The expression level of the target gene was normalized to 16S rRNA gene. Relative expression of the target genes was obtained from 2^‒ΔΔct.
# P. aeruginosa PAO1 = test: Growth assay, standard plate counts; assay type: cell-based, Pseudomonas aeruginosa; settings: 800 µM, 24 h
# Experimental: The effects of BmKn‒2 peptide and its derivatives on growth of P. aeruginosa PAO1 were carried out as described previously with some modifications. Bacterial suspension (10^6 CFU/mL) and the test peptides (800 μM, final concentration) were incubated at 37 ^OC at 150 rpm. Bacterial culture without the test peptides was used as the untreated control. After 24 h, bacterial concentration was evaluated. Cultures from each treatment were taken and 10-fold serial dilution was performed; 100 μL of each dilution was then spread on LB agar plates. Following incubation at 37°C for 24 h, the colonies were counted and expressed as log10 CFU/mL.
# rhlI mRNA = test: qRT-PCR of quorum sensing-related gene rhlI; assay type: cell-based, Pseudomonas aeruginosa; settings: 800 µM, 10 h
# Experimental: as §1
# [1] = test system: L929 mouse fibroblast cells; test: Cytotoxicity, MTT assay; assay type: cell-based; settings: 800 µM, 24 h; for Cell viability (%): L929 cells
# Experimental: The toxicity of the test peptides against L929 mouse fibroblast cells was assessed by 3-(4,5-dimethylthiazol-2-yl)-2,5-diphenyltetrazolium bromide (MTT) assay. L929 mouse fibroblast cells from American Type Culture Collection (ATCC, Manassas, VA, USA) were cultured in Dulbecco's Modified Eagle Medium (DMEM; HyClone, Utah, USA) supplemented with 10% fetal bovine serum (Gibco, South America), 10 mM 4-(2-hydroxyethyl)-1 piperazineethanesulfonic acid (HEPES; HyClone, Utah, USA), 2 mM L-glutamine (Gibco, Brazil) and 100 U/mL penicillin and 100 μg/ml streptomycin (Gibco, USA) in a 5% CO2 atmosphere at 37°C. L929 cells (2×10^4 cells/well) were seeded in 96-well plates (Nunc) and incubated overnight. The culture medium was discarded and replaced by 100 μL of fresh DMEM containing the test compounds (final concentration 800 μM). Cells without the test compounds served as untreated control. After 24 h incubation, 20 μL of MTT solution (5 mg/mL; Sigma, St. Louis, MO, USA) was added and incubated for 3 h. The culture supernatant was removed and 100 μL dimethyl sulfoxide was added to each well to dissolve the formazan crystals. The absorbance was measured at 540 nm on a microplate reader (BioTek Synergy HT). Percentage of cell viability was calculated according to the equation: (OD of treated cells/ OD of untreated cells) × 100.
# [2] = test system: P. aeruginosa PAO1 established biofilms; test: Established (24 h-preformed) biofilm assay, crystal violet staining; assay type: cell-based, Pseudomonas aeruginosa
# Experimental: Antibiofilm activity of the test peptides was also examined against established biofilms as follows. Aliquots of the P. aeruginosa PAO1 suspension adjusted to a final concentration of 10^6 CFU/mL were seeded into the wells of flat-bottomed 96-well microtiter plates (Nunc). Biofilms were established at 37°C for 24 h. After incubation, nonadherent planktonic cells were removed by gently washing the wells with sterile PBS pH 7.4. Preformed biofilms were then treated with the test peptides at concentrations of 200 ‒ 800 μM and incubated at 37°C for 24 h. Culture without the test peptides served as the untreated control. After the incubation, the test peptides were aspirated gently and the plates were rinsed twice with PBS pH 7.4. Biofilm biomass was subsequently quantified by 0.1% crystal violet staining as previously described.
# [3] = normalized to 16S rRNA, 2^-ΔΔct, untreated control = 1, mean of 2 independent experiments in quadruplicate
# [4] = compared with untreated control, result in words
sequence,measurement,setting,value
FIGAIARLLSK [BmKn-22],"Relative mRNA expression, rhlR",rhlR mRNA; [3],0.511
same,"Relative mRNA expression, rhlR",rhlR mRNA; Exp. 1,0.408
same,"Relative mRNA expression, rhlR",rhlR mRNA; Exp. 2,0.614
same,mRNA expression of rhlR,rhlR mRNA; result in words,significantly (P < 0.05) decreased
same,"Bacterial growth, Log10 CFU/mL","P. aeruginosa PAO1; 37 °C, 150 rpm, plate counts, untreated control 9.183, mean of 3 independent experiments",9.323 Log10 CFU/mL
same,effect on bacterial counts (growth),P. aeruginosa PAO1; [4],no significant (P > 0.05) differences in bacterial counts
same,"Bacterial growth, Log10 CFU/mL",P. aeruginosa PAO1; Exp. 1 (untreated control 9.082),9.235 Log10 CFU/mL
same,"Bacterial growth, Log10 CFU/mL",P. aeruginosa PAO1; Exp. 2 (untreated control 9.198),9.292 Log10 CFU/mL
same,"Bacterial growth, Log10 CFU/mL",P. aeruginosa PAO1; Exp. 3 (untreated control 9.268),9.443 Log10 CFU/mL
same,"Relative mRNA expression, rhlI",rhlI mRNA; [3],1.127
same,"Relative mRNA expression, rhlI",rhlI mRNA; Exp. 1,0.929
same,"Relative mRNA expression, rhlI",rhlI mRNA; Exp. 2,1.325
same,mRNA expression of rhlI,rhlI mRNA; result in words,no alteration
same,effect on viability of L929 cells,[1]; [4],low effects on cell viability
same,Cell viability (%),[1]; Exp. 1,108.407%
same,Cell viability (%),[1]; Exp. 2,75.218%
same,Cell viability (%),[1]; Exp. 3,94.787%
same,"Biofilm inhibition (%), preformed biofilm","[2]; 200 µM, Exp. 1",30.458%
same,"Biofilm inhibition (%), preformed biofilm","[2]; 200 µM, Exp. 2",17.360%
same,"Biofilm inhibition (%), preformed biofilm","[2]; 200 µM, Exp. 3",22.328%
same,"Biofilm inhibition (%), preformed biofilm","[2]; 400 µM, Exp. 1",27.005%
same,"Biofilm inhibition (%), preformed biofilm","[2]; 400 µM, Exp. 2",32.202%
same,"Biofilm inhibition (%), preformed biofilm","[2]; 400 µM, Exp. 3",27.300%
same,"Biofilm inhibition (%), preformed biofilm","[2]; 800 µM, Exp. 1",44.831%
same,"Biofilm inhibition (%), preformed biofilm","[2]; 800 µM, Exp. 2",34.141%
same,"Biofilm inhibition (%), preformed biofilm","[2]; 800 µM, Exp. 3",53.943%
